Experimental findings from patent US8569339B2, “Soluble guanylate cyclase activators” (Boehringer Ingelheim International GmbH, priority 2011, dated 2013) are described below.

Converted amounts (≈) assume the structure as drawn.

Series [1] deals with T1, Recombinant human soluble guanylate cyclase (sGC) (Homo sapiens, UniProt Q02153).
T1 construct: histidine tag (C); made in house; host or cells: Sf9 insect cells (baculovirus coinfection)
In words: Molecular assay: activation of heme-free sGC, cGMP detection (CisBio kit). The series is classed as biochemical. Particulars: 300 pM heme-free sGC, 37° C., 60 minutes, cGMP formation. On the procedure:
The compounds of the invention may be evaluated in the following molecular assay:
Recombinant human soluble guanylate cyclase (sGC) is purified from Sf9 insect cells coinfected with baculoviruses expressing the alpha 1 or beta 1 subunit of sGC, both with a C-terminal histidine tag. Heme-free sGC is prepared by treating cell lysate with a final concentration of 0.5% Tween 20 prior to purification on a nickel affinity column.
sGC catalyzes the conversion of guanosine-5′-triphosphate (GTP) to cyclic guanosine monophosphate (cGMP). The activity of sGC is measured in vitro using the commercially available CisBio cGMP detection kit (catalog #62GM2PEB) in a 384 well format. In brief, 300 pM heme-free sGC is incubated in reaction buffer (50 mM MOPS pH 6.8, 0.2 N KOH, 50 mM NaCl, 2 mM MgCl2, 0.1% BSA, 1.25 mM IBMX, 0.25 mM TCEP, 50 nM GTP) in the presence or absence of dilutions of test compounds diluted in DMSO (final concentration of 1%) in a volume of 10 microL at 37° C. for 60 minutes. Undiluted reaction products or an 80-fold dilution of reaction products (10 microL of either) prepared in reaction buffer containing 0.2 mM TCEP and 10 mM EDTA is mixed with 5 microL of d2-cGMP plus 5 microL of Eu^3+cryptate-labeled anti-cGMP, each diluted in buffer containing 0.1 M KPO4 pH 7.5, 0.4 M KF, 20 mM EDTA, 0.2% BSA. After a one hour incubation at room temperature in the dark, the mixtures are quantified on an EnVision plate reader (PerkinElmer) according to manufacturer instructions (laser excitation 337 nm, emission 620 and 665 nm). The ratio at each compound concentration is converted to nM cGMP using the linear portion of a calibration curve. Log compound concentration is plotted against combined undiluted and diluted nM cGMP values to determine the EC50 for each curve.
Representative compounds of the present invention were tested for activity in the above assay. Preferred compounds have an IC50<5,000 nM and more preferred compounds have an IC50<100 nM in this assay.

Series [2] can be described thus: Assessment of solubility (HT solubility, pION, UV). Format: physicochemical. Particulars: incubated 16-19 hours, 1.0% DMSO, 100 uM; for solubility kinetic: pH 4.5 buffer (pION system solution), pH 4.5, aqueous buffer, kinetic from dmso stock, pH 4.5 buffer, read-out: Sol pH 4.5; for Sol pH 7.4: pH 7.4 buffer. How it is done: Solubility is measured by the following method.
DMSO stock samples at 10 mM conc are prepared. […] The samples are pierced and 100 ul of thawed samples are transferred into the PCR plate for analysis. Each sample is run in duplicate at each pH (pH 4.5 and 7.4). Up to 95 samples can be run in replicate at 2 pH's+1 DMSO (blank).
2. Preparation of pH 4.5 and 7.4 buffers:
pH 4.5 buffer: To 12.5 of system solution (pION) qs to 500 mL of distilled water (pH 2.85-2.90); adjust the pH to pH 4.5 with 0.5 N NaOH.
pH 7.4 buffer: To 12.5 of system solution (pION) qs to 500 mL of distilled water (pH 2.85-2.90); adjust the pH to pH 7.4 with 0.5N NaOH.
Preparation of UV blank plate:
75 ul of buffer (pH 7.4 or pH 4.5) is added to UV plate followed by addition of […] of N-propanol. The solution is mixed and the blank spectrum is read using spectrophotometer.
Preparation of Reference UV plate:
10 ul of each stock sample (including DMSO control) is added to 190 ul of N-propanol to prepare the reference stock plate. Reference stock samples are mixed and 5 ul of each stock sample is added to UV blank plate after it is read spectrophotometrically. The reference stock sample is mixed with blank solution in UV plate and the reference spectrum is read using UV spectrophotometer.
Preparation of sample for incubation:
Solubility at pH 7.4: 6 ul of each stock sample (including DMSO control) is added to the storage plate containing 600 ul of pH 7.4 buffer, mixed and incubated for 16-19 hours. The plate is sealed well during the incubation process. The DMSO content in the sample is 1.0%. The concn in deep well plates is 100 uM
6 ul of each stock sample (including DMSO control) is added to the deep well plate containing 600 ul of pH 4.5 buffer, mixed and incubated for 16-19 hours. The plate is sealed well during the incubation process. The DMSO content in the sample is 1.0%. The concn in deep well plates is 100 uM
Preparation of sample UV plate:
At the end of the incubation period, 100 uL of sample from the storage plate is vacuum filtered using a filter plate. This step wets the filters and the filtrate is discarded. Another 200 ul of the sample from the deep well plate is vacuum filtered using the same filter block but a clean filter plate. 75 ul of the filtrate from the filter plate is transferred to a UV sample plate. 75 ul of N-propanol is added to this UV plate. The solution is mixed and the spectrum is read using the UV spectrophotometer.
The spectra collected for blank, reference and sample from 250-498 nm is analyzed using pION software. If the sample precipitates out, the solubility is reported as XX μg/ml. If there is no precipitation and the sample is soluble, solubility is reported as […] (YY being the initial concentration of the compound in the sample).

T1 sequence (Q02108 whole entry partner): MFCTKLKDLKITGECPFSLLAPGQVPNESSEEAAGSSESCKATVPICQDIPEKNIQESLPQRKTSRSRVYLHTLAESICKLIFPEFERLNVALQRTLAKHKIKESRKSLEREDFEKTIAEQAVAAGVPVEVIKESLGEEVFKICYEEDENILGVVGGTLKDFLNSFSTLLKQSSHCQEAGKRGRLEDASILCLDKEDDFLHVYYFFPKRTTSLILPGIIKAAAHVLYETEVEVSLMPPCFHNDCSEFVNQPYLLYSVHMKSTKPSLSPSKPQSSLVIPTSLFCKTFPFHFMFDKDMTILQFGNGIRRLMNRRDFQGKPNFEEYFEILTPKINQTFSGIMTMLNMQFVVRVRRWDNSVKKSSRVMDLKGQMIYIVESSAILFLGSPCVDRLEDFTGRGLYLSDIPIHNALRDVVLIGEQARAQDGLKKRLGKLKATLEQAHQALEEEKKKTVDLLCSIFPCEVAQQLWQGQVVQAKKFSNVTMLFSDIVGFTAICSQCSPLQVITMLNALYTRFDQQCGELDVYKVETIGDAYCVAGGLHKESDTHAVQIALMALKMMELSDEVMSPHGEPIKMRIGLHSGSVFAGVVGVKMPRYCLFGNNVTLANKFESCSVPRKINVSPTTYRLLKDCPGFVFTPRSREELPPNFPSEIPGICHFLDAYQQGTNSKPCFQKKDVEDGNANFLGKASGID
T1 sequence (Q02153 whole entry): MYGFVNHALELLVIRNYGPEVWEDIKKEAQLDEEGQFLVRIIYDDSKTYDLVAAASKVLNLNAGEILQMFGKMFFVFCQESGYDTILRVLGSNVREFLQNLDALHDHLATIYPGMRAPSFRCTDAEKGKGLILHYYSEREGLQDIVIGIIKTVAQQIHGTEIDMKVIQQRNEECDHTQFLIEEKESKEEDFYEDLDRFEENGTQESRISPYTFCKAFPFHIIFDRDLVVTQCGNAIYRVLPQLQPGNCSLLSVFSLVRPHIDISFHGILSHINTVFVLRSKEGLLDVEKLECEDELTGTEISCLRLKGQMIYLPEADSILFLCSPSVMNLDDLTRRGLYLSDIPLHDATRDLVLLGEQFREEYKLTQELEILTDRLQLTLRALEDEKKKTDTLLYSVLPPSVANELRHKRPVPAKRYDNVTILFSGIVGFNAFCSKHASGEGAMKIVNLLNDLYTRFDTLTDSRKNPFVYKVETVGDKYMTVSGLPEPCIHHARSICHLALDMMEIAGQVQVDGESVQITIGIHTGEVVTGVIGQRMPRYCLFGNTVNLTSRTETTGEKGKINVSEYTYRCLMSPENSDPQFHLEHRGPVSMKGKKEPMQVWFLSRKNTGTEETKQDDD

For `Cc1ccc(OCc2ccc3c(c2)CCN(S(=O)(=O)CC(=O)O)C3)c(-c2cccc(-n3ncc(C(=O)O)c3C(F)(F)F)n2)c1` [Compound 1], in series [1], the EC50 was 148 nM. In series [2], the solubility kinetic was above 62 µg/mL and the “Sol pH 7.4” value is reported as above 62 μg/mL.
For the compound `Cc1ccc(OCc2ccc3c(c2)CCN(C2CCCOC2)C3)c(-c2cccc(-n3ncc(C(=O)O)c3C(F)(F)F)n2)c1` (stereo not drawn) [Compound 22], the EC50 in series [1] was 1 nM. In addition, in series [2], the solubility kinetic was above 59 µg/mL and the “Sol pH 7.4” value is given as above 59 μg/mL.
The corresponding values for `Cc1ccc(OCc2ccc3c(c2)CCNC3)c(-c2cccc(-n3ncc(C(=O)O)c3C(F)(F)F)n2)c1` [Compound 4, 1-{6-[5-Methyl-2-(1,2,3,4-tetrahydroisoquinolin-6-ylmethoxy)phenyl]pyridin-2-yl}-5-trifluoromethyl-1H-pyrazole-4-carboxylic acid] are 575 nM, 17.6 µg/mL (≈ 34.6 µM) and 21.7 μg/mL.
The like results for `Cc1cccc(-c2cccc(-c3ncc(C(=O)O)n3C)n2)c1OCc1ccc2c(c1)CCN(C1CCCOC1)C2` (stereo not drawn) [Compound 75] were, in that order, 175 nM, above 65 µg/mL and above 65 μg/mL.
The like results for `Cc1ccc(OCc2ccc3c(c2)CCN(C2CCCC2)C3)c(-c2cccc(-n3ncc(C(=O)O)c3C(F)(F)F)n2)c1` [Compound 17] were, in that order, 13 nM, 44.3 µg/mL (≈ 76.8 µM) and above 68 μg/mL.
Turning to `Cc1ccc(OCc2ccc3c(c2)CCN(CCC2CCOCC2)C3)c(-c2cccc(-n3ncc(C(=O)O)c3C(F)(F)F)n2)c1` [Compound 25], the EC50 in series [1] came to 19 nM. In series [2], the solubility kinetic was above 62 µg/mL and the “Sol pH 7.4” value is on record as above 62 μg/mL.
The like results for `Cc1cccc(-c2cccc(-n3ncc(C(=O)O)c3C)n2)c1OCc1ccc2c(c1)CCN(C1CCOCC1)C2` [Compound 64] were, in that order, 21 nM, above 78 µg/mL and above 78 μg/mL.
For the compound `Cc1ccc(OCc2ccc3c(c2)CCN3S(C)(=O)=O)c(-c2cccc(-n3ncc(C(=O)O)c3C(F)(F)F)n2)c1` [Compound 9, 1-{6-[2-(1-methanesulfonyl-2,3-dihydro-1H-indol-5-ylmethyoxy)-5-methylphenyl]pyridin-2-yl}-5-trifluoromethyl-1H-pyrazole-4-carboxylic acid], in series [1], the EC50 was found to be 67 nM. For the same compound, in series [2], the solubility kinetic came out at 0.4 µg/mL (≈ 0.699 µM) and the “Sol pH 7.4” value is given as above 54 μg/mL.
For the compound `Cc1ccc(OCc2ccc3c(c2)CCN(Cc2cncn2C)C3)c(-c2cccc(-n3ncc(C(=O)O)c3C(F)(F)F)n2)c1` [Compound 30], the EC50 in series [1] stood at 71 nM. Also, in series [2], the solubility kinetic is above 60 µg/mL and the “Sol pH 7.4” value is above 60 μg/mL.
With `Cc1ccc(OCc2ccc3c(c2)CCN(C2CCOCC2)C3)c(-c2cccc(-n3ncc(C(=O)O)c3C(F)(F)F)n2)c1` [Compound 34], in series [1], the EC50 was 8 nM. Further, in series [2], the solubility kinetic is 41.5 µg/mL (≈ 70 µM) and the “Sol pH 7.4” value is recorded as 41.8 μg/mL.
For the compound `CCn1c(C(=O)O)cnc1-c1cccc(-c2cccc(C)c2OCc2ccc3c(c2)CCN(C2CCOCC2)C3)n1` [Compound 63, 3-ethyl-2-[6-[3-methyl-2-[(2-tetrahydropyran-4-yl-3,4-dihydro-1H-isoquinolin-6-yl)methoxy]phenyl]-2-pyridyl]imidazole-4-carboxylic acid], the EC50 in series [1] stood at 14 nM. In series [2], the solubility kinetic is above 78 µg/mL and the “Sol pH 7.4” value was found to be 54.2 μg/mL.
The corresponding values for `Cc1cccc(-c2cccc(-c3onc(C(=O)O)c3C)n2)c1OCc1ccc2c(c1)CCN(C1CCOCC1)C2` [Compound 86, 4-methyl-5-[6-[3-methyl-2-[(2-tetrahydropyran-4-yl-3,4-dihydro-1H-isoquinolin-6-yl)methoxy]phenyl]-2-pyridyl]isoxazole-3-carboxylic acid] are 775 nM, above 65 µg/mL and above 65 μg/mL.
The corresponding values for `Cc1ccc(OCc2ccc3c(c2)CN(C)CC3)c(-c2cccc(-n3ncc(C(=O)O)c3C(F)(F)F)n2)c1` [Compound 52] are 550 nM, above 63 µg/mL and 42.1 μg/mL.
The like results for `Cc1ccc(OCc2ccc3c(c2)N(C)CCC3)c(-c2cccc(-n3ncc(C(=O)O)c3C(F)(F)F)n2)c1` [Compound 13] were, in that order, 79 nM, 8.1 µg/mL (≈ 15.5 µM) and above 52 μg/mL.
As to `Cc1ccc(OCc2ccc3snnc3c2)c(-c2cccc(-n3ncc(C(=O)O)c3C(F)(F)F)n2)c1` [Compound 7, 1-{6-[2-(benzo[1,2,3]thiadiazol-5-ylmethyoxy)-5-methylphenyl]pyridin-2-yl}-5-trifluoromethyl-1H-pyrazole-4-carboxylic acid], the EC50 in series [1] worked out at 490 nM. In series [2], the solubility kinetic was determined as 2.1 µg/mL (≈ 4.11 µM) and the “Sol pH 7.4” value is on record as above 51 μg/mL.
The like results for `Cc1ccc(OCc2ccc3c(c2)CCN(C)C3)c(-c2cccc(-n3ncc(C(=O)O)c3C(F)(F)F)n2)c1` [Compound 2, 1-{6-[5-methyl-2-(2-methyl-1,2,3,4-tetrahydroisoquinolin-6-ylmethoxy)phenyl]pyridin-2-yl}-5-trifluoromethyl-1H-pyrazole-4-carboxylic acid] were, in that order, 46 nM, 6.5 µg/mL (≈ 12.4 µM) and 6.1 μg/mL.
As for `Cc1ccc(OCc2ccc3c(c2)CCN(Cc2nc(C)cs2)C3)c(-c2cccc(-c3csc(C(=O)O)c3C)n2)c1` [Compound 50], the EC50 in series [1] was 380 nM. Besides, in series [2], the solubility kinetic is 13.7 µg/mL (≈ 23.5 µM) and the “Sol pH 7.4” value worked out at 13.4 μg/mL.
As to `Cc1cccc(-c2cccc(-c3c(C)c(C(=O)O)nn3C3CC3)n2)c1OCc1ccc2c(c1)CCN(C1CCC(F)(F)CC1)C2` [Compound 90], the EC50 in series [1] was 15 nM. Also, in series [2], the solubility kinetic turned out to be 49 µg/mL (≈ 80 µM) and the “Sol pH 7.4” value was found to be 50.2 μg/mL.
The corresponding values for `CCn1nc(C(=O)O)c(C)c1-c1cccc(-c2cccc(C)c2OCc2ccc3c(c2)CCN(C2CCOCC2)C3)n1` [Compound 82] are 210 nM, above 67 µg/mL and above 67 μg/mL.
The corresponding values for `Cc1ccc(OCc2ccc3c(c2)CCN(C)CC3)c(-c2cccc(-n3ncc(C(=O)O)c3C(F)(F)F)n2)c1` [Compound 40] are 32 nM, 16.3 µg/mL (≈ 30.4 µM) and 18.5 μg/mL.

What is called EC50 is the concentration giving half of the maximal effect.
